From US20230017266A1, “Cyclooxygenase-2 Inhibition for the Treatment of SAA-high Asthma” (THE USA, AS REPRESENTED BY THE SECRETARY, DEPT. OF HEALTH …, priority 2019, published 2023)

Tested on: NF-κB p65
Assay: Phosphorylation of NF-κB p65 serine 529 in monocytes stimulated with HDL+SAA1 (flow cytometry)
Assay type: cell-based, human
Conditions: A438079 10 μM for 2 h, then HDL+SAA1 15 min; CD45+/CD14+/CD16− monocytes
Experimental: Phosphorylation of NF-κB p65. PBMCs isolated using Lymphoprep™ were resuspended in X-VIVO™ 15 serum-free hematopoietic cell medium (Lonza, Walkersville, Md.) and treated with the P2X7R antagonist, A438079 (10 ∝M), for 2 h prior to stimulation with HDL+SAA1 for 15 min^53. Subsequent cell processing was performed at 4° C. or on ice. Cells were washed with cold PBS, centrifuged at 300×g for 5 min, and reacted in a volume of 100 ∝l PBS for 15 min with the following antibodies; APC-Cy™7 mouse anti-human CD45 clone 2D1 (catalog #557833), FITC mouse anti-human CD14 clone M5E2 (catalog #555397), APC mouse anti-human CD16 clone B73.1 (catalog #561304), all form BD Biosciences (San Jose, Calif.) and cell viability dye (L34959, ThermoFisher Scientific, Frederick, Md.). […] Cells were washed with Phosflow Perm Buffer III and PBS, resuspended in PBS, and analyzed using a Fortessa analyzer equipped with 355, 407, 488, 532 and 640 nm LASER lines using FACS DIVA 8.0 software (BD Biosciences, San Jose, Calif.). […] Mean fluorescence intensity (MFI) was calculated and overlay histogram plots were generated to quantify phosphorylation of NF-κB p65 serine 529 among various treatment conditions.

For `Clc1cccc(-c2nnnn2Cc2cccnc2)c1Cl` [A438079], the “HDL+SAA1-mediated phosphorylation of p65 NF-κB” value was “attenuated”.
